Source: ChEMBL document CHEMBL1201862, “PubChem BioAssay data set” (2004)
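Cultured in 96-well plates, cells were exposed to test compound for 48 hours across five concentrations. At the GI50, growth is halved.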 The source made the active and inactive calls. Cut-off read from the data, not from the text of the source: active = GI50 up to about 1.1 µM and inactive = higher.

How the values were obtained:
Experiment in all cases: NCI anticancer screen, dose series, 48 h
SR = system: SR
CCRF-CEM = system: CCRF-CEM
SN12C = system: SN12C
SF-539 = system: SF-539
U-251 = system: U-251
HOP-62 = system: HOP-62
UO-31 = system: UO-31
COLO 205 = system: COLO 205
MDA-MB-231 = system: MDA-MB-231
MDA-N = system: MDA-N
OVCAR-5 = system: OVCAR-5
HCT-15 = system: HCT-15
MCF7 = system: MCF7
CAKI-1 = system: CAKI-1
Hs-578T = system: Hs-578T
HL-60 = system: HL-60
HCC 2998 = system: HCC 2998
NCI-H460 = system: NCI-H460

| SMILES | GI50 (SR) | GI50 (CCRF-CEM) | GI50 (SN12C) | GI50 (SF-539) | GI50 (U-251) | GI50 (HOP-62) | GI50 (UO-31) | GI50 (COLO 205) | GI50 (MDA-MB-231) | GI50 (MDA-N) | GI50 (OVCAR-5) | GI50 (HCT-15) [µM] | GI50 (MCF7) | GI50 (CAKI-1) | GI50 (Hs-578T) | GI50 (HL-60) | GI50 (HCC 2998) | GI50 (NCI-H460) |
| --- | --- | --- | --- | --- | --- | --- | --- | --- | --- | --- | --- | --- | --- | --- | --- | --- | --- | --- |
| Cc1cc(-c2cc(C(C)(C)C)c(O)c(C(C)(C)C)c2)c(C)cc1-c1cc(C(C)(C)C)c(O)c(C(C)(C)C)c1 | 41.2 µM (inactive) | > 100 µM (inactive) | > 100 µM (inactive) | > 100 µM (inactive) | > 100 µM (inactive) | > 100 µM (inactive) | > 100 µM (inactive) | > 100 µM (inactive) | > 100 µM (inactive) | > 100 µM (inactive) | > 100 µM (inactive) | > 100 | > 100 µM (inactive) | > 100 µM (inactive) | > 100 µM (inactive) | > 100 µM (inactive) | – | – |
| CC(=O)n1nc(-c2ccc3ccccc3c2)nc1C | > 100 µM (inactive) | 83.8 µM (inactive) | > 100 µM (inactive) | > 100 µM (inactive) | – | 39.5 µM (inactive) | 39.4 µM (inactive) | > 100 µM (inactive) | > 100 µM (inactive) | 70.8 µM (inactive) | > 100 µM (inactive) | 35.6 | > 100 µM (inactive) | 53.7 µM (inactive) | 39.4 µM (inactive) | 46 µM (inactive) | > 100 µM (inactive) | 95.9 µM (inactive) |
| COC1=CC(=O)c2c(cc(COP(=O)(OCC3OC(n4cc(F)c(=O)[nH]c4=O)CC3O)N(C)CCCCCl)n2C)C1=O (centres undefined) | < 0.01 µM (active) | < 0.01 µM (active) | < 0.0248 µM (active) | < 0.0118 µM (active) | 0.409 µM (active) | 0.0413 µM (active) | 0.0605 µM (active) | – | 3.82 µM (inactive) | 0.41 µM (active) | 7.45 µM (inactive) | 7.55 | < 0.01 µM (active) | 0.0102 µM (active) | 0.0877 µM (active) | 0.195 µM (active) | < 0.01 µM (active) | < 0.01 µM (active) |
| O=c1onc2n1-c1cc(Cl)ccc1C(=S)N1CSCC21 (centres undefined) | 34.6 µM (inactive) | 55.8 µM (inactive) | > 100 µM (inactive) | – | > 100 µM (inactive) | > 100 µM (inactive) | > 100 µM (inactive) | > 100 µM (inactive) | > 100 µM (inactive) | > 100 µM (inactive) | > 100 µM (inactive) | > 100 | > 100 µM (inactive) | > 100 µM (inactive) | > 100 µM (inactive) | – | > 100 µM (inactive) | > 100 µM (inactive) |
| C[n+]1c(-c2ccc(/C=N\N3CCN(/N=C/c4ccc(-c5cn6ccccc6[n+]5C)cc4)CC3)cc2)cn2ccccc21 | 30.7 µM (inactive) | 34.2 µM (inactive) | 54.5 µM (inactive) | 48.4 µM (inactive) | 27.1 µM (inactive) | – | > 100 µM (inactive) | 27.1 µM (inactive) | 27.3 µM (inactive) | 36.2 µM (inactive) | > 100 µM (inactive) | 88.3 | > 100 µM (inactive) | 20.5 µM (inactive) | 29.3 µM (inactive) | 21.2 µM (inactive) | – | 58.6 µM (inactive) |
| Cc1nc2sccn2c1C(=O)OCCOCCOCCOCCOC(=O)c1c(C)nc2sccn12 | 45.9 µM (inactive) | – | > 100 µM (inactive) | 77.4 µM (inactive) | > 100 µM (inactive) | > 100 µM (inactive) | 70.5 µM (inactive) | 86.7 µM (inactive) | > 100 µM (inactive) | 36.1 µM (inactive) | > 100 µM (inactive) | > 100 | 61.5 µM (inactive) | > 100 µM (inactive) | > 100 µM (inactive) | 15.7 µM (inactive) | > 100 µM (inactive) | 80.7 µM (inactive) |
| Clc1ccc(C2Nc3ccccc3C3=NCCN32)cc1 (centres undefined) | 21 µM (inactive) | 28.4 µM (inactive) | 29.8 µM (inactive) | 15.6 µM (inactive) | 25.9 µM (inactive) | 23.4 µM (inactive) | 27.3 µM (inactive) | 13 µM (inactive) | 23.5 µM (inactive) | 17.4 µM (inactive) | 29.7 µM (inactive) | 34.3 | 22.3 µM (inactive) | 26.5 µM (inactive) | 33.3 µM (inactive) | 22.1 µM (inactive) | – | 16.3 µM (inactive) |
| CC(=O)NC1C(OCc2ccccc2)OC(CO)C(O)C1OC(C)C(=O)NC(C(=O)NC(CCC(=O)NCCCNc1ccc([N+](=O)[O-])c2[nH]c3ccccc3c(=O)c12)C(N)=O)C(C)C (centres undefined) | – | > 100 µM (inactive) | > 100 µM (inactive) | > 100 µM (inactive) | > 100 µM (inactive) | > 100 µM (inactive) | > 100 µM (inactive) | > 100 µM (inactive) | 40.6 µM (inactive) | > 100 µM (inactive) | 59.6 µM (inactive) | > 100 | > 100 µM (inactive) | > 100 µM (inactive) | > 100 µM (inactive) | > 100 µM (inactive) | – | > 100 µM (inactive) |
| Nc1nc(F)nc2c1ncn2C1OC(CO)C(O)C1O (centres undefined) | – | 0.344 µM (active) | 3.89 µM (inactive) | > 100 µM (inactive) | > 81.5 µM (inactive) | 5.12 µM (inactive) | 11.1 µM (inactive) | 53.1 µM (inactive) | > 100 µM (inactive) | > 58.6 µM (inactive) | > 100 µM (inactive) | > 75 | 57.7 µM (inactive) | 34.6 µM (inactive) | > 100 µM (inactive) | 42.5 µM (inactive) | 49.3 µM (inactive) | 73.1 µM (inactive) |
